Laboratory results as given in ChEMBL document CHEMBL1130444, “Inhibitory effects of pentamidine analogues on spermine stimulated ligand binding to the NMDA receptor complex” (Bioorg Med Chem Lett, 1997).
Several values for one entry are separate records, joined by “and”; a condition that tells them apart may be missing. Equal entries are not always repeated.

Key:
[1] = biological target: T1, Glutamate NMDA receptor (Rattus norvegicus) (UniProt P35439+Q00959+Q00960+Q00961+Q62645+Q8VHN2+Q9R1M7); assay: Hill coefficient for binding to NMDA receptor in TRIS acetate pH 7; assay type: protein-complex assay
Glutamate NMDA receptor [2] = assay: Inhibition of [3H]MK-801 binding to the NMDA receptor of rat hippocampal membranes, measured in buffer containing 50 mM TRIS acetate, pH 7; assay type: cell membranes, Membrane
Glutamate NMDA receptor [3] = assay: Inhibition of [3H]MK-801 binding to the NMDA receptor of rat hippocampal membranes, measured in buffer containing 20 mM TRIS acetate, pH 7; assay type: cell membranes, Membrane
[4] = biological target: T1, Glutamate NMDA receptor (Rattus norvegicus); assay: Effect of spermine on the inhibition of [3H]MK-801 binding to the NMDA receptor at 100 TRIS acetate, pH 7; assay type: protein-complex assay
Glutamate NMDA receptor [5] = assay: Inhibition of [3H]MK-801 binding to NMDA receptor in 50 mM TRIS acetate pH 7; assay type: protein-complex assay, Rattus norvegicus
[6] = biological target: T1, Glutamate NMDA receptor (Rattus norvegicus); assay: Effect of spermine on the inhibition of [3H]MK-801 binding to the NMDA receptor TRIS acetate, pH 7; assay type: protein-complex assay
[7] = biological target: T1, Glutamate NMDA receptor (Rattus norvegicus); assay: Hill coefficient for binding to NMDA receptor; assay type: protein-complex assay
[8] = biological target: T1, Glutamate NMDA receptor (Rattus norvegicus); assay: Effect of spermine on the inhibition of [3H]-MK-801 binding to the NMDA receptor TRIS acetate, pH 7; assay type: protein-complex assay
[9] = biological target: T1, Glutamate NMDA receptor (Rattus norvegicus); assay: Effect of spermine on inhibition of [3H]MK-801 binding to NMDA receptor at 100 TRIS acetate, pH 7; assay type: protein-complex assay

Row | SMILES | nH [1] | IC50 (Glutamate NMDA receptor [2]) | IC50 (Glutamate NMDA receptor [3]) | Increase in IC50 [4] | IC50 (Glutamate NMDA receptor [5]) [µM] | Increase in IC50 [6] | nH [7] | Increase in IC50 [8] | Increase in IC50 [9]
1 | COc1cc(C2=NCCN2)ccc1OC/C=C/COc1ccc(C2=NCCN2)cc1OC | 1.09 and 1.16 | 63 µM | 35 µM and 33 µM | 4.24 and 3.79 | 83 | 12.7 and 13.8 | 1.04 and 0.96 |  | 
2 | N=C(N)c1ccc(OC/C=C\COc2ccc(C(=N)N)cc2)cc1 | 1.13 | 4.26 µM | 1.8 µM and 1.48 µM |  |  | 29.1 and 38.2 | 1.39 and 1.38 | 11.9 | 
3 | C(=C\COc1ccc(C2=NCCN2)cc1)/COc1ccc(C2=NCCN2)cc1 | 0.98 and 0.81 | 38 µM and 37 µM | 13.1 µM and 13.8 µM |  |  | 15.3 and 12.7 | 0.95 and 0.87 | 4.14 | 4.88
4 | N=C(N)c1ccc(OCCCCOc2ccc(C(=N)N)cc2)cc1 | 0.99 | 5.18 µM | 2.64 µM and 3.01 µM |  |  | 28.8 and 35 | 1.11 and 1.36 | 10.2 | 
5 | N=C(N)c1ccc(OC/C=C/COc2ccc(C(=N)N)cc2)cc1 | 0.71 | 3.81 µM | 2.48 µM and 1.94 µM |  |  | 21.7 and 27.8 | 0.98 and 0.88 | 9.5 | 
6 | N=C(N)c1ccc(OC[C@@H](O)[C@H](O)COc2ccc(C(=N)N)cc2)cc1 | 1.23 and 1.08 | 66 µM | 24.8 µM and 22.6 µM | 8.1 |  | 28.4 and 22.4 | 1.04 and 1.09 | 9.3 | 
7 | COc1cc(C2=NCCN2)ccc1OC/C=C\COc1ccc(C2=NCCN2)cc1OC | 1.33 and 1.15 | 32.6 µM and 49 µM | 26.5 µM and 23.3 µM |  |  | 7.8 and 8.6 | 1.13 and 1.29 | 4.62 and 3.43 | 
8 | N=C(N)c1ccc(OCCCCCOc2ccc(C(=N)N)cc2)cc1 [PENTAMIDINE] | 0.93 | 3.06 µM | 1.31 µM and 1.74 µM |  |  | 30.7 and 21.4 | 1.17 and 1.15 | 9.5 | 
9 | COc1cc(C(=N)N)ccc1OC/C=C\COc1ccc(C(=N)N)cc1OC | 2.14 and 1 | 95 µM | 50 µM and 62 µM | 1.72 and 2.87 | 73 | 4.7 and 4.5 | 1.21 and 1.46 |  | 
10 | COc1cc(C(=N)N)ccc1OC/C=C/COc1ccc(C(=N)N)cc1OC | 1.28 and 1.21 | 31 µM and 26.4 µM | 12 µM and 12.6 µM | 2.87 and 4.15 |  | 14.3 and 12.2 | 1.19 |  | 
11 | C(=C/COc1ccc(C2=NCCN2)cc1)/COc1ccc(C2=NCCN2)cc1 | 0.99 | 26.7 µM | 18.8 µM and 15.9 µM |  |  | 9.9 and 12.1 | 1.21 | 5.48 | 
